Measured values as given in patent US20170067909A1, “ASSAY-READY RECOMBINANT CELLS TRANSIENTLY OVEREXPRESSING GENES ENCODING DRUG TRANSPORTER PROTEINS AND/OR DRUG METABOLIZING ENZYMES” (Corning Incorporated, priority 2012, published 2017).
Where a chain is given by its changes, count along the chain named.

Columns and labels:
[1] = target: T1, Organic Anion-Transporting Polypeptide 1B1 (Homo sapiens, UniProt Q9Y6L6); test: Suspension assay, vacuum manifold, Corning TransportoCells OATP1B1*1a; format: in vitro ADME; conditions: 5× substrate solution containing 25 μM, 10 minutes at 37° C., 600 k cells/well
T1 construct: host or cells: HEK293 cells, gene delivered by electroporation
T1 sequence (Q9Y6L6 1-691): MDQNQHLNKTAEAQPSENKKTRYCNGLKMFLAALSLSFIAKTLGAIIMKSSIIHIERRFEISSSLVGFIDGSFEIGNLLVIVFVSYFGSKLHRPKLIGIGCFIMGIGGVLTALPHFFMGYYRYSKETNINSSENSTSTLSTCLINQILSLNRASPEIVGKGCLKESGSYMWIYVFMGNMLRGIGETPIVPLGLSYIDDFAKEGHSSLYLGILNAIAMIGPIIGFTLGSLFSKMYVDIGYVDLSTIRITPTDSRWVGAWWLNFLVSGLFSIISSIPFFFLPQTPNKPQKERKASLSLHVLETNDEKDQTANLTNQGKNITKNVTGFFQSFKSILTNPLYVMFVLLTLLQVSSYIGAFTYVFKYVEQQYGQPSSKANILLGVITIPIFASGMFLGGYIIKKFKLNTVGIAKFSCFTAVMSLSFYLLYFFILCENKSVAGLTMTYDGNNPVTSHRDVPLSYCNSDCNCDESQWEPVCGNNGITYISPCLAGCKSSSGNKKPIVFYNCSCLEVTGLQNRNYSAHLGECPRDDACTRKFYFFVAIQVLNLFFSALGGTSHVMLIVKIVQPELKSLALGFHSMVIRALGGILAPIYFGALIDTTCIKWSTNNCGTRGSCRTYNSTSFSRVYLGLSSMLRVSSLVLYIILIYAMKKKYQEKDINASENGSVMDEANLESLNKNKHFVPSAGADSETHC
Excerpt: In this experiment, a suspension assay for characterizing the activity of a drug transporter protein in cryopreserved, Corning® TransportoCells™ was developed. More specifically, the use of a centrifugation method versus a vacuum manifold for separating unreacted substrate in characterizing the activity of Organic Anion-Transporting Polypeptide 1B1 was investigated. Corning® TransportoCells™ transiently transfected with the gene OATP1B1*1a were obtained from Corning Life Sciences (Cat. No. 354859). In the Corning® TransportoCells™, the gene OATP1B1*1a was delivered into HEK293 cells via electroporation and the HEK293 cells were recovered and cryopreserved 1 hour post-electroporation. In order to obtain suitable expression of the Organic Anion-Transporting Polypeptide 1B1 encoded by OATP1B1*1a, the Corning® TransportoCells™ were thawed, cultured, and harvested.
The cells were cultured in T-175 Vented-Cap Culture Flasks with Poly-D-Lysine (hereinafter, “PDL”; available from Corning Life Sciences, Cat. No. 354539) with plating medium for 48 hours at 37° C. and 8% CO2. The plating medium is detailed in Table 16. After 24 hours, sodium butyrate (obtained from Sigma) was added to the cells to reach final 5 mM. After 48 hours, the cells were rinsed twice with Phosphate-Buffered Saline (hereinafter, “PBS”, obtained from Corning).
The cells were then harvested with 0.05% Trypsin (obtained from Sigma) and washed once with Hank's Balanced Salt Solution (hereinafter, “HBSS”) buffer (with Ca^2+ and Mg^2+, obtained from Corning). Then, the cells were resuspended in HBSS (obtained from Corning) to a final cell density of 3×10^6 cells/ml. […]
Then, the cells were transferred to FiltrEX™ 96 Well Filter Plates with 0.66 mm Thick Glass Fiber Filter (available from Corning Life Sciences, Cat. No. 3511) and a vacuum was applied. […] The cell lysis was then subjected to the appropriate protein analysis and/or fluorescence analysis to characterize the activity of Organic Anion-Transporting Polypeptide 1B1.

OATP1B1*5 = target: T2, OATP1B1*5 (Homo sapiens, UniProt Q9Y6L6, V174A); test: OATP1B1 single nucleotide polymorphism panel uptake assay, OATP1B1*5 HEK-293 cells
T2 sequence (Q9Y6L6 1-691 V174A): T1 sequence (Q9Y6L6 1-691) with V174A

Compound	Uptake Activity OATP1B1 [1] [pmol/mg/min]	uptake activity / transport compared to OATP1B1*1a cells (in words) (OATP1B1*5)	Uptake Ratio [1]
C[C@]12CC[C@@H]3c4ccc(O)cc4CC[C@H]3[C@@H]1CC[C@@H]2O[C@@H]1O[C@H](C(=O)O)[C@@H](O)[C@H](O)[C@H]1O [E17βG]	2.19	Significantly impaired transport	–
fluorescein methotrexate [FMTX]	0.46	Significantly impaired transport	6.8
